Data taken from patent US20230343467A1, “SYSTEMS AND METHODS FOR IDENTIFICATION OF CELL LINES, BIOMARKERS, AND PATIENTS FOR DRUG RESPONSE PREDICTION” (THERAINDX LIFESCIENCES PVT LTD, priority 2020, published 2023).

Tests used:
[1] = test system: MCF7; experiment: In vitro potency (IC50) of Palbociclib on breast cancer cell line; type: cell-based; details: Homo sapiens, read-out: Observed IC50
Text: (§1) Palbociclib, a targeted inhibitor of CDK4/6 indicated for breast cancer. Identification of Human Breast Cancer cell lines sensitive and resistant to Palbociclib using the method 300 for drug discovery and development, particularly for identification, selection and validation of Human Cancer Cell lines and Biomarkers based on Pharmacological Target(s). A comparison of Predicted Efficacy with Observed Efficacy in cell lines/patients is provided. The pharmacological target is Ser/Thr-kinase component of cyclin D-CDK4/6, which inhibits CDK4/6 phosphorylation of retinoblastoma (RB) protein family (RB1). The phenotypic end point of which is the inhibition of cell proliferation. Further, the Breast Cancer Cell Lines are selected based on the multi-omics and pathway regulator status. […] The predicted response (sensitivity or resistance to Palbociclib) was compared with cell line in vitro potency data (IC50) of Palbociclib. The predicted responses were in agreement with observed data (IC50) for Palbociclib's activity on various Human Breast Cancer cell lines. Table 6a and 6b show the comparison of predicted response values, for both sensitive and resistant to Palbociclib, with observed data.

[2] = test system: MDAMB231; experiment: as above; type: cell-based; details: Homo sapiens, MDA-MB-231, read-out: Observed IC50
Text: as §1

[3] = test system: EFM19; experiment: as above; type: cell-based; details: Homo sapiens, EFM-19, read-out: Observed IC50
Text: as §1

[4] = test system: HCC2157; experiment: as above; type: cell-based; details: Homo sapiens, read-out: Observed IC50
Text: as §1

[5] = test system: MDAMB468; experiment: as above; type: cell-based; details: Homo sapiens, MDA-MB-468, read-out: Observed IC50
Text: as §1

[6] = test system: HCC1569; experiment: as above; type: cell-based; details: Homo sapiens, read-out: Observed IC50
Text: as §1

[7] = test system: HCC1500; experiment: as above; type: cell-based; details: Homo sapiens, read-out: Observed IC50
Text: as §1

[8] = test system: MDAMB157; experiment: as above; type: cell-based; details: Homo sapiens, MDA-MB-157, read-out: Observed IC50
Text: as §1

[9] = test system: MDAMB361; experiment: as above; type: cell-based; details: Homo sapiens, MDA-MB-361, read-out: Observed IC50
Text: as §1

[10] = test system: DU4475; experiment: as above; type: cell-based; details: Homo sapiens, DU-4475, read-out: Observed IC50
Text: as §1

[11] = test system: cell line population with amplified ABCB1; experiment: Response curves (IC50 values) of cell line populations, transporter amplified vs wildtype, vincristine; details: IC50 values for 530 cell lines from Cancerrx
Text: (§2) The drug transporter identification module 205 allows identification of co-relating genomic factors such as factors affecting drug transporters, transporter genes, or any alterations therein such as transporter gene amplification including copy number alterations ([…]), increased m-RNA expressions, etc. particularly associated with multidrug resistance (MDR) development. The drug transporter identification module 205 allows identifying drug transporter factors that impact the efficacy of the drug of interest using in vitro sensitivity data, during pre-clinical phase of drug development. […] Drug transporters such as solute carrier (SLC) family and ATP-binding cassette (ABC) family are known to function as drug efflux pumps which contribute towards drug resistance and reduced bioavailability. The method, in various embodiments herein use in vitro sensitivity data in identification of MDR transporter genes during pre-clinical phase of drug development. In an embodiment, in vitro sensitivity data for chemo therapeutic drug, vincristine (particularly cell line-specific IC50 values for 530 cell lines), from cancerrx (database of genomics of drug sensitivity), and cell multi-omics characteristics, from Cancer Cell Line Encyclopedia (CCLE) were used as inputs for the stratification algorithm. […]

[12] = test system: cell line population with amplified ABCB4; experiment: as above; details: IC50 values for 530 cell lines from Cancerrx
Text: as §2

IC50 [1] [nM] | IC50 [2] [nM] | IC50 [3] [nM] | IC50 [4] [nM] | IC50 [5] [nM] | IC50 [6] [nM] | IC50 [7] [nM] | IC50 [8] [nM] | IC50 [9] [nM] | IC50 [10] [nM] | SMILES | Efficacy in cell line population with ABCB1 amplification compared to wildtype (median of response curves) [11] | Efficacy in cell line population with ABCB4 amplification compared to wildtype (median of response curves) [12]
148 | 432 | 27 | > 1000 | > 1000 | > 1000 | 45 | > 1000 | 44 | > 1000 | CC(=O)c1c(C)c2cnc(Nc3ccc(N4CCNCC4)cn3)nc2n(C2CCCC2)c1=O [Palbociclib] | – | –
– | – | – | – | – | – | – | – | – | – | CC[C@]1(O)C[C@H]2CN(CCc3c([nH]c4ccccc34)[C@@](C(=O)OC)(c3cc4c(cc3OC)N(C=O)[C@H]3[C@@](O)(C(=O)OC)[C@H](OC(C)=O)[C@]5(CC)C=CCN6CC[C@]43[C@@H]65)C2)C1 [vincristine] | lesser efficacy | lower efficacy
